Reference: patent publication US10670605B2, “Cysteine reactive probes and uses thereof” (The Scripps Research Institute, priority 2015, dated 2020)

How the values were obtained:
[1] = molecular target: T1, cysteines in MDA-MB-231 and Ramos cells (Homo sapiens, UniProt Q9NQ88); experiment: Competitive isoTOP-ABPP in situ (fragment-treated cells); assay type: cell-based
T1 sequence (Q9NQ88 1-270): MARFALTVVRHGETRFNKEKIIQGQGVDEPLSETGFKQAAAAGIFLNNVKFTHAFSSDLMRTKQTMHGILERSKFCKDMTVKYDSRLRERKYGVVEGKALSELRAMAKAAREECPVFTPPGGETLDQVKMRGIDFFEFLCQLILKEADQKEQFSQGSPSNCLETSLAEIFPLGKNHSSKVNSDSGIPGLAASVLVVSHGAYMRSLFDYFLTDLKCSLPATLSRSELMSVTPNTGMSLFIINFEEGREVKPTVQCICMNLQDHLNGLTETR

[2] = molecular target: cysteines in MDA-MB-231 and Ramos cells (Homo sapiens, UniProt P51610); experiment: as above; assay type: cell-based
[3] = molecular target: cysteines in MDA-MB-231 and Ramos cells (Homo sapiens, UniProt Q9UNI6); experiment: as above; assay type: cell-based; details: for isoTOP-ABPP ratio, cysteine Q9UNI6_C265 / isoTOP-ABPP ratio Q9UNI6_C265: 200 μM, insitu, 231
[4] = molecular target: cysteines in MDA-MB-231 and Ramos cells (Homo sapiens, UniProt Q6XZF7); experiment: as above; assay type: cell-based
[5] = molecular target: cysteines in MDA-MB-231 and Ramos cells (Homo sapiens, UniProt Q8NBS9); experiment: as above; assay type: cell-based
[6] = molecular target: T2, cysteines in MDA-MB-231 and Ramos cells (Homo sapiens, UniProt O14733); experiment: as above; assay type: cell-based; details: 200 μM, insitu
T2 sequence (O14733 1-419): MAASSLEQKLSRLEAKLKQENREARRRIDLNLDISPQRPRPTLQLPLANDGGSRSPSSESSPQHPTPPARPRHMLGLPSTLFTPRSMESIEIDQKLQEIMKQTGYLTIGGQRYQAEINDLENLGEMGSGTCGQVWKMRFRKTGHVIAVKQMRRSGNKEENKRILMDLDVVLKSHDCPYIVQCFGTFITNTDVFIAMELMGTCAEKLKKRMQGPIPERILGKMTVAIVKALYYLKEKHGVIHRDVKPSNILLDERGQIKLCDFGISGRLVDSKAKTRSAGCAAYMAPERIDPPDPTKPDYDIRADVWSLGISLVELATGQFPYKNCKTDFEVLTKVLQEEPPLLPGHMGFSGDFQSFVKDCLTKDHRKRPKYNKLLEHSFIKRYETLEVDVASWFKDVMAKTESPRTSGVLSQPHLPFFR

O114933_C98 = O114933_C98 (Homo sapiens, UniProt O14933); experiment: Competitive isoTOP-ABPP, cell lysates; assay type: binding; details: 500 μm
Sequence of O114933_C98 (O14933 whole entry): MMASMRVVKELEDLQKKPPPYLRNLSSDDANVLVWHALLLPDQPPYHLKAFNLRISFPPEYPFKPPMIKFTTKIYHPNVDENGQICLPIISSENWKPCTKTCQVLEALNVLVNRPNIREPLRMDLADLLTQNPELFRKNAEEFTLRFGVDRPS

Sequence of cysteines in MDA-MB-231 and Ramos cells (Homo sapiens, UniProt P51610) (P51610 whole entry): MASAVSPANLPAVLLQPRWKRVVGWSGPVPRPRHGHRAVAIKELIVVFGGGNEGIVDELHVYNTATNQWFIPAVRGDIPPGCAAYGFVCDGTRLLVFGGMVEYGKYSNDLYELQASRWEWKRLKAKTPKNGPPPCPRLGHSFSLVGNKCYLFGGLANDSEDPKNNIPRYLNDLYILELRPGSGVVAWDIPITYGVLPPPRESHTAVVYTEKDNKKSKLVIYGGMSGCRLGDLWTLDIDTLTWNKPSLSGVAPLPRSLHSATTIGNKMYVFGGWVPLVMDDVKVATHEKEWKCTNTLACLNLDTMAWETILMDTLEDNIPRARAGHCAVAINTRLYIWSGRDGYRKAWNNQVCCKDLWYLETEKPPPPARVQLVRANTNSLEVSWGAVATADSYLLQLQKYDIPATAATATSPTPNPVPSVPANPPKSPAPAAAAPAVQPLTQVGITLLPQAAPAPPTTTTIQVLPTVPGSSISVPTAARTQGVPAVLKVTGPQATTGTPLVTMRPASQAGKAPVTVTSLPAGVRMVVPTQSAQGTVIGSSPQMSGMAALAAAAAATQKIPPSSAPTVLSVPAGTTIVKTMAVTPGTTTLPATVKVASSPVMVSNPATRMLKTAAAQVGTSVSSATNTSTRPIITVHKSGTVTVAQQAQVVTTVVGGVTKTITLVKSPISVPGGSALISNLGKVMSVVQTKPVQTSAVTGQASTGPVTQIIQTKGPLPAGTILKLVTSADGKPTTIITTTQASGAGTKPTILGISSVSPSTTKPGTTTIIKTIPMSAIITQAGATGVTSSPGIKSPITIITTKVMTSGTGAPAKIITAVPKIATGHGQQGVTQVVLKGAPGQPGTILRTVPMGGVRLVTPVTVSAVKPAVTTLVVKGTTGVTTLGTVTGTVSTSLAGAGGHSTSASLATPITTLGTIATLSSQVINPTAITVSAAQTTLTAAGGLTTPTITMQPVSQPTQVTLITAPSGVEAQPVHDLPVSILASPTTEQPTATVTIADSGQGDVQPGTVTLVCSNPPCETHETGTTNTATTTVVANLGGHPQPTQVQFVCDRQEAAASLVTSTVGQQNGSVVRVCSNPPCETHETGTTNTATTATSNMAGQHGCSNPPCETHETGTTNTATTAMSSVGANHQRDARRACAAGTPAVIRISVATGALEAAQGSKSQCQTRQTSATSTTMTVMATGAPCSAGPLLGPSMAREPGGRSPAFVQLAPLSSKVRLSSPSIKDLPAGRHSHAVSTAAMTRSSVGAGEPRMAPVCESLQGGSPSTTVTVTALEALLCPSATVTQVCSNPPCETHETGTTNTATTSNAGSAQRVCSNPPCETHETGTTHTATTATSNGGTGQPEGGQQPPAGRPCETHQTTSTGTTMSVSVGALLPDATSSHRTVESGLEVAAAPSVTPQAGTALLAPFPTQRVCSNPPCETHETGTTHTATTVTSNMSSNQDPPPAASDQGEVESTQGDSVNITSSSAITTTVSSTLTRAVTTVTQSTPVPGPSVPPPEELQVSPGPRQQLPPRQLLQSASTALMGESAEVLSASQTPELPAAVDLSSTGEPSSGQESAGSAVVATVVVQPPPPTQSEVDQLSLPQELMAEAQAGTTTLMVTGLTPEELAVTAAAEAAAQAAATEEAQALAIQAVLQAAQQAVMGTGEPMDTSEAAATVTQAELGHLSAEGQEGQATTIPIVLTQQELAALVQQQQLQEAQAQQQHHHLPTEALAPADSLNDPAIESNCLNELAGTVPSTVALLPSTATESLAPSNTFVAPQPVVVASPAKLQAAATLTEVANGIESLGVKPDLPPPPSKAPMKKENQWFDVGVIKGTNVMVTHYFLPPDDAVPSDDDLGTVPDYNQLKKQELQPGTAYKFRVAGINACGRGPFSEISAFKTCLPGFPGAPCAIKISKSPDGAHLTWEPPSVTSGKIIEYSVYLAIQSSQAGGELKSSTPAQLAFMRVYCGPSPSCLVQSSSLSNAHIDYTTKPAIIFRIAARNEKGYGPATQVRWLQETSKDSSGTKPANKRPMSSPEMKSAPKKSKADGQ
Sequence of cysteines in MDA-MB-231 and Ramos cells (Homo sapiens, UniProt Q9UNI6) (Q9UNI6 whole entry): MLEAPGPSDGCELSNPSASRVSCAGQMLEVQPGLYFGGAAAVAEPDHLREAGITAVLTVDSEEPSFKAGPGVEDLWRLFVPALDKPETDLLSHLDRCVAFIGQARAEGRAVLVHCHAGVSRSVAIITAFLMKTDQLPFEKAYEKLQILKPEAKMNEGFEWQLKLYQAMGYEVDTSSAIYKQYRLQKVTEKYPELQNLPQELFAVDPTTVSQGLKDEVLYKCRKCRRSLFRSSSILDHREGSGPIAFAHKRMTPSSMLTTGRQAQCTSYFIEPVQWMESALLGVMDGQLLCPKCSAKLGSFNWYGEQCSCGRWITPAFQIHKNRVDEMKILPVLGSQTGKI
Sequence of cysteines in MDA-MB-231 and Ramos cells (Homo sapiens, UniProt Q6XZF7) (Q6XZF7 whole entry): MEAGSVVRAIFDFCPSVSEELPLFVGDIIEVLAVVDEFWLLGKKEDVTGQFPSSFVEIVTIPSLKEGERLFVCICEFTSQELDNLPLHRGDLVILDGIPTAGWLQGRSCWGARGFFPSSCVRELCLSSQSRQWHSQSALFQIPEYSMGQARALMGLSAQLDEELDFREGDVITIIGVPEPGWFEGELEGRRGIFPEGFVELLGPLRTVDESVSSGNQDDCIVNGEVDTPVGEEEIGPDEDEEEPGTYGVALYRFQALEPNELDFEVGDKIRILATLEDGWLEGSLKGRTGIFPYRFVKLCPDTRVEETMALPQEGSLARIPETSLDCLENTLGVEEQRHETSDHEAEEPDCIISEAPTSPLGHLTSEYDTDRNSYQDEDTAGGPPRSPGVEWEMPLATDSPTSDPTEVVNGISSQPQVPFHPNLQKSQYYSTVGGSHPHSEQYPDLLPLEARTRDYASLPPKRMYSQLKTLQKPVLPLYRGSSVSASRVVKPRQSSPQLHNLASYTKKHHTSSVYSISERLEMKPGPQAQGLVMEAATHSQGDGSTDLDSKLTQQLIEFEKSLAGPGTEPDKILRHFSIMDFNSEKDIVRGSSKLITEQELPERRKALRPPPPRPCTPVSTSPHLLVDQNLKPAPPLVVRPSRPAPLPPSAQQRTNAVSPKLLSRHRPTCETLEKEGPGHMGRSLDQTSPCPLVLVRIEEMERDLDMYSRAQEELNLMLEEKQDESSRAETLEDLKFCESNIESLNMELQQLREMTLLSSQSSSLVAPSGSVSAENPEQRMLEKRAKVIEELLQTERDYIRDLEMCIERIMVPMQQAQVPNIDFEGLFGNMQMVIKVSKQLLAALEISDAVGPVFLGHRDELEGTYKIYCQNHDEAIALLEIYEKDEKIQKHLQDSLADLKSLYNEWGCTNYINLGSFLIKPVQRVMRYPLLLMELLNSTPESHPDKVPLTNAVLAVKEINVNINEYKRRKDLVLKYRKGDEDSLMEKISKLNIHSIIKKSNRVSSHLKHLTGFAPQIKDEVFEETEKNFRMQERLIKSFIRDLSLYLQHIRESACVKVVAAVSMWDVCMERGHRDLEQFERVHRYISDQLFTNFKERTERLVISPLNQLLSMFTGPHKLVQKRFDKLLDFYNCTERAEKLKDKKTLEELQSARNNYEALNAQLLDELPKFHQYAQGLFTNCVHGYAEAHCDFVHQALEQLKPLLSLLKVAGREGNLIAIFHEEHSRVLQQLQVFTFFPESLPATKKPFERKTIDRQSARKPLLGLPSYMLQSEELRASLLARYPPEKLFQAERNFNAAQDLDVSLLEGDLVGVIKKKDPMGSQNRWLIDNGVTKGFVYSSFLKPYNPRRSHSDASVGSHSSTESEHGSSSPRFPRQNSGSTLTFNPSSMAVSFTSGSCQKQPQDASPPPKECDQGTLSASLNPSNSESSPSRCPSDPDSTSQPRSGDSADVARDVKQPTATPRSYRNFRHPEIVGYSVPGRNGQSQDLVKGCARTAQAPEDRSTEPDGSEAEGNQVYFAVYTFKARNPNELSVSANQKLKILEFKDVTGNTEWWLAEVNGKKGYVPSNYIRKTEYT
Sequence of cysteines in MDA-MB-231 and Ramos cells (Homo sapiens, UniProt Q8NBS9) (Q8NBS9 33-432): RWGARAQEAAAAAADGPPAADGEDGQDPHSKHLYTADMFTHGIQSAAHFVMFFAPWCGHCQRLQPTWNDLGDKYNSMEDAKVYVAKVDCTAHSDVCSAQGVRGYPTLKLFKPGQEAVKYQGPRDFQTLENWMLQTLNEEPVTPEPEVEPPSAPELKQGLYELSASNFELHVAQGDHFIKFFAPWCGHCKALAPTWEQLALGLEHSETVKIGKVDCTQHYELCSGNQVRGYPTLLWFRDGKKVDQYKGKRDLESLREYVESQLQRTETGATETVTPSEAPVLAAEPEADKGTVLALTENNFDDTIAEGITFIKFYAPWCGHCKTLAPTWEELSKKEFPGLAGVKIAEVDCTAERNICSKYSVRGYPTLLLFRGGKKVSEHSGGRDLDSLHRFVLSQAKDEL

COc1ccc2c(c1)CCCN2C(=O)CCl [compound 2]
isoTOP-ABPP reactivity Q9NQ88_C114 TIGAR ([1]; 200 μM, insitu, 231): 2.8 | isoTOP-ABPP reactivity Q9NQ88_C161 TIGAR ([1]; 200 μM, insitu, 231): 6.0 | isoTOP-ABPP reactivity P51610_C1872 HCFC1 ([2]; 200 μM, insitu, 231): 4.1

COc1ccc(C2CC(c3cccs3)=NN2C(=O)CCl)cc1 (stereo not drawn) [compound 4]
isoTOP-ABPP reactivity Q9UNI6_C265 DUSP12 ([3]; 100 μM in situ 231): 0.8 | isoTOP-ABPP reactivity Q6XZF7_C691 DNMBP ([4]; 100 μM in situ 231): 1.2 | isoTOP-ABPP reactivity Q8NBS9_C350 TXNDC5 ([5]; 100 μM in situ 231): 2.4

O=C(CCl)N1CCC(Cc2ccccc2)CC1 [compound 9]
isoTOP-ABPP reactivity Q9NQ88_C114 TIGAR ([1]; 200 μM, insitu, 231): 1.9 | isoTOP-ABPP reactivity Q9NQ88_C161 TIGAR ([1]; 200 μM, insitu, 231): 2.6 | isoTOP-ABPP reactivity Q6XZF7_C691 DNMBP ([4]; 200 μM, insitu, 231): 3.4 | isoTOP-ABPP reactivity Q8NBS9_C350 TXNDC5 ([5]; 200 μM, insitu, 231): 1.7

O=C(CCl)N1CCN(S(=O)(=O)c2ccccc2F)CC1 [compound 10]
isoTOP-ABPP ratio, cysteine Q9UNI6_C265 [3]: 1.2 | isoTOP-ABPP ratio, cysteine O14733_C131 [6]; 231: 1.8 | isoTOP-ABPP ratio Q9NQ88_C114 ([1]; 200 μM, insitu, 231): 2.1 | isoTOP-ABPP ratio Q9NQ88_C161 ([1]; 200 μM, insitu, 231): 4.6 | isoTOP-ABPP ratio Q9NQ88_C161 ([1]; 200 μM, insitu, ramos): 2.1 | isoTOP-ABPP ratio, cysteine Q6XZF7_C691 ([4]; 200 μM, insitu, 231): 20.0 | isoTOP-ABPP ratio, cysteine Q6XZF7_C691 ([4]; 200 μM, insitu, ramos): 20.0 | isoTOP-ABPP ratio Q8NBS9_C350 ([5]; 200 μM, insitu, ramos): 1.4 | isoTOP-ABPP ratio, cysteine P51610_C1872 ([2]; 200 μM, insitu, 231): 1.5

Cn1cc(S(=O)(=O)N2CCOCC2)cc1C(=O)NC(=O)CCl [compound 11]
isoTOP-ABPP ratio Q9NQ88_C114 ([1]; 100 μM in situ 231): 0.8 | isoTOP-ABPP ratio Q9NQ88_C161 ([1]; 100 μM in situ 231): 0.9 | isoTOP-ABPP ratio Q8NBS9_C350 ([5]; 100 μM in situ 231): 3.4 | isoTOP-ABPP ratio, cysteine P51610_C1872 ([2]; 100 μM in situ 231): 0.5

O=C(CCl)NC(=O)NC12CC3CC(CC(C3)C1)C2 [compound 12]
isoTOP-ABPP ratio, cysteine Q9UNI6_C265 [3]: 1.2 | isoTOP-ABPP ratio, cysteine O14733_C131 [6]; 231: 1.7 | isoTOP-ABPP ratio Q8NBS9_C350 ([5]; 200 μM, insitu, 231): 9.4

O=C(CCl)NCCc1c[nH]c2ccccc12 [compound 13]
isoTOP-ABPP ratio, cysteine O14733_C131 ([6]; ramos): 1.6 | isoTOP-ABPP ratio Q9NQ88_C114 ([1]; 200 μM, insitu, 231): 1.1 | isoTOP-ABPP ratio Q9NQ88_C161 ([1]; 200 μM, insitu, 231): 1.1 | isoTOP-ABPP ratio Q9NQ88_C114 ([1]; 200 μM, insitu, ramos): 1.2 | isoTOP-ABPP ratio Q9NQ88_C161 ([1]; 200 μM, insitu, ramos): 1.5 | isoTOP-ABPP ratio, cysteine Q6XZF7_C691 ([4]; 200 μM, insitu, 231): 1.6 | isoTOP-ABPP ratio Q8NBS9_C350 ([5]; 200 μM, insitu, 231): 1.3 | isoTOP-ABPP ratio, cysteine P51610_C1872 ([2]; 200 μM, insitu, 231): 1.0

O=C(CCl)NC12CC3CC(CC(C3)C1)C2 [compound 21]
isoTOP-ABPP ratio, cysteine O14733_C131 [6]; 231: 0.7 | isoTOP-ABPP ratio Q9NQ88_C114 ([1]; 200 μM, insitu, 231): 0.9 | isoTOP-ABPP ratio Q9NQ88_C161 ([1]; 200 μM, insitu, 231): 1.0 | isoTOP-ABPP ratio, cysteine Q6XZF7_C691 ([4]; 200 μM, insitu, 231): 0.8

CC(C)CCOCCNC(=O)CCl [compound 27]
isoTOP-ABPP ratio Q9UNI6_C265 [3]: 0.6 | isoTOP-ABPP ratio Q9NQ88_C114 ([1]; 200 μM, insitu, 231): 0.4 | isoTOP-ABPP ratio Q9NQ88_C161 ([1]; 200 μM, insitu, 231): 0.6 | isoTOP-ABPP ratio Q8NBS9_C350 ([5]; 200 μM, insitu, 231): 1.1

COc1ccccc1OCCNC(=O)CCl [compound 28]
isoTOP-ABPP ratio Q9UNI6_C265 [3]: 0.8 | isoTOP-ABPP ratio Q8NBS9_C350 ([5]; 200 μM, insitu, 231): 1.1

O=C(CCl)N1CCN(CC(=O)N2CCOCC2)CC1 [compound 29]
isoTOP-ABPP ratio O14733_C131 ([6]; ramos): 1.0 | isoTOP-ABPP ratio Q9NQ88_C114 ([1]; 200 μM, insitu, ramos): 0.9 | isoTOP-ABPP ratio Q9NQ88_C161 ([1]; 200 μM, insitu, ramos): 1.3

CCN(CC)c1ccc(S(N)(=O)=O)cc1NC(=O)CCl [compound 30]
isoTOP-ABPP reactivity ratio, O114933_C98 (O114933_C98; in-vitro_ramos): 2.1

C=CC(=O)N(Cc1cccnc1)c1cc(C(F)(F)F)cc(C(F)(F)F)c1 [compound 31]
isoTOP-ABPP ratio Q9NQ88_C161 ([1]; 200 μM, insitu, 231): 1.0 | isoTOP-ABPP ratio Q9NQ88_C161 ([1]; 200 μM, insitu, ramos): 2.6 | isoTOP-ABPP ratio Q6XZF7_C691 ([4]; 200 μM, insitu, 231): 2.3 | isoTOP-ABPP ratio Q8NBS9_C350 ([5]; 200 μM, insitu, 231): 0.8

CC(C)(C)c1cc(NC(=O)CCl)on1 [compound 32]
isoTOP-ABPP reactivity ratio, O114933_C98 (O114933_C98; in-vitro_ramos): 4.6 | isoTOP-ABPP reactivity ratio, O114933_C98 (O114933_C98; in-vitro_ramos_231): 13.8

O=C(CCl)N(Cc1ccc(F)cc1)C12CC3CC(CC(C3)C1)C2 [compound 34]
isoTOP-ABPP reactivity ratio, O114933_C98 (O114933_C98; in-vitro_ramos_231): 0.8

C=CC(=O)Nc1cc(F)c(N2CCN(C(=O)OC(C)(C)C)CC2)c(F)c1 [compound 38]
isoTOP-ABPP ratio Q9UNI6_C265 [3]: 1.0 | isoTOP-ABPP ratio O14733_C131 [6]; 231: 20.0 | isoTOP-ABPP ratio P51610_C1872 ([2]; 200 μM, insitu, 231): 1.3 | isoTOP-ABPP reactivity ratio, O114933_C98 (O114933_C98; in-vitro_ramos): 1.7 | isoTOP-ABPP reactivity ratio, O114933_C98 (O114933_C98; in-vitro_ramos_231): 1.6

C=CC(=O)Nc1cc(C)c(Br)cc1C [compound 40]
isoTOP-ABPP reactivity ratio, O114933_C98 (O114933_C98; in-vitro_ramos): 1.3

Cc1ccc(C=C(C#N)C(=O)NCCN2CCOCC2)cc1 [compound 41]
isoTOP-ABPP ratio Q9UNI6_C265 [3]: 1.0 | isoTOP-ABPP ratio O14733_C131 [6]; 231: 0.8 | isoTOP-ABPP ratio Q9NQ88_C114 ([1]; 200 μM, insitu, 231): 0.6 | isoTOP-ABPP ratio Q8NBS9_C350 ([5]; 200 μM, insitu, 231): 0.9 | isoTOP-ABPP ratio P51610_C1872 ([2]; 200 μM, insitu, 231): 0.5 | isoTOP-ABPP reactivity ratio, O114933_C98 (O114933_C98; in-vitro_ramos): 1.1 | isoTOP-ABPP reactivity ratio, O114933_C98 (O114933_C98; in-vitro_ramos_231): 1.2

CC1CCc2ccccc2N1C(=O)CCl (stereo not drawn) [compound 45]
isoTOP-ABPP ratio Q9UNI6_C265 [3]: 7.5 | isoTOP-ABPP ratio Q9NQ88_C114 ([1]; 200 μM, insitu, 231): 4.6 | isoTOP-ABPP ratio Q9NQ88_C161 ([1]; 200 μM, insitu, 231): 20.0 | isoTOP-ABPP ratio Q8NBS9_C350 ([5]; 200 μM, insitu, 231): 2.1
